Data reported in patent US9801850B2, “Antibacterial agent” (OSAKA UNIVERSITY, priority 2009, dated 2017).

Assays:
[1] = test system: MRSA clinical isolate No. 6; test: MIC, broth microdilution (Example 2, Table 6); format: cell-based, Staphylococcus aureus
[2] = test system: MSSA clinical isolate No. 1; test: MIC, broth microdilution (Example 2, Table 6); format: cell-based, Staphylococcus aureus
[3] = test system: MSSA clinical isolate No. 3; test: MIC, broth microdilution (Example 2, Table 6); format: cell-based, Staphylococcus aureus
[4] = test system: MRSA clinical isolate No. 10; test: MIC, broth microdilution (Example 2, Table 6); format: cell-based, Staphylococcus aureus
[5] = test system: MRSA clinical isolate No. 9; test: MIC, broth microdilution (Example 2, Table 6); format: cell-based, Staphylococcus aureus
[6] = test system: MRSA clinical isolate No. 11; test: MIC, broth microdilution (Example 2, Table 6); format: cell-based, Staphylococcus aureus
[7] = test system: MSSA clinical isolate No. 4; test: MIC, broth microdilution (Example 2, Table 6); format: cell-based, Staphylococcus aureus
[8] = test system: MSSA ATCC25923; test: MIC, broth microdilution (Example 2, Table 6); format: cell-based, Staphylococcus aureus
[9] = test system: MRSA ATCC43300; test: MIC, broth microdilution (Example 2, Table 6); format: cell-based, Staphylococcus aureus
Protocol: (§1) Methicillin-susceptible Staphylococcus aureus (MSSA) NCTC8325 and methicillin-resistant Staphylococcus aureus (MRSA) ATCC43300 were used as bacteria. The bacteria of each type were cultured using Mueller-Hinton Broth (MH-broth, Difco) as a medium. Then, the minimum inhibitory concentration (MIC) of each of the EGCG derivatives was measured by a broth microdilution method in accordance with the Clinical and Laboratory Standards Institute (CLSI) guidelines (hereinafter the same).
(§2) First, each of the EGCG derivatives was dissolved in 100% dimethyl sulfoxide (DMSO, Wako Pure Chemical Industries, Ltd.) so that the concentration thereof became 5120 μg/ml. The resultant solution was diluted with DMSO or sterile distilled water so as to prepare two-fold dilution series of antibacterial agent solutions. […] Each of these antibacterial agent solutions was dispensed to wells of a 96-well plate. The concentration of the EGCG derivative in the antibacterial agent solution dispensed to the wells was set to be 10 times as high as the final concentration. On the other hand, the bacteria were cultured in the MH-broth at 37° C. overnight, and the thus-obtained pre-culture solution was diluted with a new MH-broth so that the concentration thereof in the MH-broth became 10^−4 (10^4-fold dilution), thus preparing a bacterial culture solution of about 1×10^5 CFU/ml (CFU: Colony Forming Unit, the number of viable cells). The bacterial culture solution was further added to each well, and the mixture was cultured at 37° C. for 18 hours. The ratio (volume ratio) between the antibacterial agent solution and the bacterial culture solution added to each well was set to 1:9 (the antibacterial agent solution:the bacterial culture solution), and the volume of the mixture of them per well was set to 100 μl in total. The final concentration of the EGCG derivative in the mixture was set to 8 μg/ml to 512 μg/ml, and the number of viable cells in the mixture was set to about 1×10^5 CFU/ml. Then, after the completion of the culture, the MIC was determined. Also, the turbidity (OD600 nm) was measured using a plate reader so as to identify minor differences.
(§3) Each of the EGCG derivatives was dissolved in 100% DMSO so that the concentration thereof became 1280 μg/ml. The thus-obtained solutions were diluted with sterile distilled water, thus preparing antibacterial agent solutions.
(§4) As Comparative Example 2, the same procedures as in Example 2 were performed, except that unsubstituted EGCG was used as an antibacterial agent instead of the EGCG derivatives of Example 2. Furthermore, as a control, the same procedures as in Example 2 were performed, except that sterile distilled water was used instead of the antibacterial agent solutions containing the EGCG derivatives.

[10] = test system: S. aureus NCTC8325 (MSSA); test: MIC, broth microdilution (Example 2, Table 6); format: cell-based, Staphylococcus aureus
Protocol: as §1, §2, §3, §4

[11] = test system: MSSA ATCC12600; test: MIC, broth microdilution (Example 2, Table 6); format: cell-based, Staphylococcus aureus
[12] = test system: Escherichia coli ATCC25922; test: Antibacterial spectrum MIC (Table 7); format: cell-based
Protocol: as §1, §2
(§5) Regarding the respective type strains shown in Tables 7 and 8 below, the MIC measurement was performed using the antibacterial agent solutions of Example 2 in the same manner as described in Section (2) of Example 1, except for the following. The antibacterial agent solutions were prepared by dissolving the EGCG derivatives of Example 2 in 100% DMSO and then diluting the resultant mixtures with sterile distilled water. The respective strains were derived from ATCC or NCTC. As Moraxella catarrhalis and Aspergillus fumigatus, clinical isolates thereof without an acquired resistance mechanism were used. For nutrient-rich bacteria, namely, Streptococcus pneumoniae ATCC49619, Streptococcus pyogenes ATCC19615, Streptococcus agalactiae ATCC13813, Moraxella catarrhalis, and Haemophilis influenzae ATCC49766, Strepto Haemo supplement (Eiken Chemical Co., Ltd.) was added to media for culturing them. The MIC measurement with respect to fungi was carried out by a broth microdilution method using a RPMI1640/MOPS (pH 7.0) medium in accordance with CLSI guidelines. About 2×10^3 cells/ml of fungi were inoculated to the medium. After the culture at 35° C. for 24 to 48 hours, the MIC was determined. Also, regarding the antibacterial agent solution of Comparative Example 2, the MIC was measured in the same manner.

[13] = test system: Enterobacter cloacae ATCC13047; test: Antibacterial spectrum MIC (Table 7); format: cell-based
Protocol: as §1, §2, §5

[14] = test system: Haemophilis influenzae ATCC49766; test: Antibacterial spectrum MIC (Table 7); format: cell-based; details: Strepto Haemo supplement
Protocol: as §1, §2, §5

[15] = test system: Enterobacter aerogenes ATCC13048; test: Antibacterial spectrum MIC (Table 7); format: cell-based
Protocol: as §1, §2, §5

[16] = test system: Streptococcus agalactiae ATCC13813; test: Antibacterial spectrum MIC (Table 7); format: cell-based; details: Strepto Haemo supplement
Protocol: as §1, §2, §5

[17] = test system: Serratia marcescens ATCC13880; test: Antibacterial spectrum MIC (Table 7); format: cell-based
Protocol: as §1, §2, §5

[18] = test system: Yersinia enterocolitica ATCC9610; test: Antibacterial spectrum MIC (Table 7); format: cell-based
Protocol: as §1, §2, §5

[19] = test system: Staphylococcus aureus ATCC43300 (MRSA); test: Antibacterial spectrum MIC (Table 7); format: cell-based
Protocol: as §1, §2, §5

[20] = test system: Neisseria gonorrhoeae ATCC49226; test: Antibacterial spectrum MIC (Table 7); format: cell-based
Protocol: as §1, §2, §5

[21] = test system: Staphylococcus epidermis ATCC14990; test: Antibacterial spectrum MIC (Table 7); format: cell-based; details: for MIC: Staphylococcus epidermis ATCC14990; for antibacterial effect: Staphylococcus epidermids ATCC14990, comparison among EGCG derivatives
Protocol: as §1, §2, §5

[22] = test system: MRSA clinical isolate No. 8; test: MIC, broth microdilution (Example 2, Table 6); format: cell-based, Staphylococcus aureus
[23] = test system: MSSA ATCC29213; test: MIC, broth microdilution (Example 2, Table 6); format: cell-based, Staphylococcus aureus

| Substance | MIC [1] [µg/mL] | MIC [2] [µg/mL] | MIC [3] [µg/mL] | MIC [4] [µg/mL] | MIC [6] [µg/mL] | MIC [7] [µg/mL] | MIC [8] [µg/mL] | MIC [9] [µg/mL] | MIC [10] [µg/mL] | MIC [11] [µg/mL] | MIC [12] [µg/mL] | MIC [13] [µg/mL] | MIC [15] [µg/mL] | MIC [16] [µg/mL] | MIC [17] [µg/mL] | MIC [18] [µg/mL] | MIC [19] [µg/mL] | MIC [20] [µg/mL] | MIC [21] [µg/mL] | MIC [22] [µg/mL] | also measured |
| --- | --- | --- | --- | --- | --- | --- | --- | --- | --- | --- | --- | --- | --- | --- | --- | --- | --- | --- | --- | --- | --- |
| EGCG-palmitoleate [EGCG-C16E] | 16 | 16 | 16 | 16 | 64 | 16 | 32 | 16 | 16 | 16 | 64 | 64 | 32 | >64 | 64 | 32 | 64 | 16 | 64 | 8 | MIC [5]: 64 µg/mL; MIC [14]: 16 µg/mL; MIC [23]: 16 µg/mL |
| EGCG-stearate [EGCG-C18] | 32 | 32 | 32 | 32 | 64 | 32 | 32 | 32 | 16 | 32 | 64 | 64 | 32 | 64 | 64 | 32 | 32 | 16 | 32 | 16 | antibacterial effect [21]: strongest antibacterial effect; MIC [23]: 32 µg/mL |
| EGCG-oleate [EGCG-C18E] | 32 | 32 | 32 | 16 | 64 | 32 | 32 | 32 | 16 | 32 | 64 | 64 | 32 | >64 | 64 | 32 | 64 | 16 | 64 | 8 | MIC [5]: 64 µg/mL; MIC [14]: 16 µg/mL; MIC [23]: 32 µg/mL |
| EGCG-α-linoleate [EGCG-C18TE] | 16 | 16 | 16 | 16 | 64 | 16 | 32 | 16 | 4 | 16 | 64 | 64 | 32 | >64 | 64 | 32 | 64 | 16 | 64 | 8 | MIC [5]: 64 µg/mL; MIC [14]: 16 µg/mL; MIC [23]: 16 µg/mL |
| EGCG-linolate [EGCG-C18DE] | 32 | 16 | 16 | 16 | 32 | 16 | 32 | 16 | 16 | 16 | 64 | 64 | 32 | >64 | 64 | 32 | 64 | 16 | 64 | 8 | MIC [5]: 64 µg/mL; MIC [14]: 16 µg/mL; MIC [23]: 16 µg/mL |
| EGCG-dioctanoate [EGCG-C8×2] | 16 | 16 | 16 | 16 | 32 | 16 | 16 | 16 | 4 | 8 | 64 | 64 | 16 | 64 | 64 | 32 | 64 | 16 | 64 | 4 | MIC [5]: 16 µg/mL; MIC [14]: 16 µg/mL; MIC [23]: 16 µg/mL |
| EGCG-palmitate [EGCG-C16] | 16 | 16 | 16 | 16 | 32 | 16 | 16 | 16 | 8 | 16 | 64 | 64 | 32 | >64 | 64 | 32 | 32 | 16 | 32 | 8 | MIC [5]: 32 µg/mL; MIC [14]: 16 µg/mL; antibacterial effect [21]: strongest antibacterial effect; MIC [23]: 16 µg/mL |
